This is an account of results in ChEMBL document CHEMBL3400085, “New cytochalasins from medicinal macrofungus Crodyceps taii and their inhibitory activities against human cancer cells” (Bioorg Med Chem Lett, 2015).

Experiment [1] can be described thus: Cytotoxicity against human 95-D cells assessed as inhibition of proliferation by SRB method. Format: functional, cell-based.
In a further experiment the test system is A549. Put plainly: Cytotoxicity against human A549 cells assessed as inhibition of proliferation by SRB method. Format: functional, cell-based. On the technique in general: The SRB assay estimates cell density from bound dye.
Experiment [2] is described as follows: Cytotoxicity against human HL-7702 cells assessed as inhibition of proliferation by SRB method. The settings on record: L02. Format: functional, cell-based.
The subject of another experiment is MRC5. Put plainly: Cytotoxicity against human MRC5 cells assessed as inhibition of proliferation by SRB method. Format: cell-based.

By IC50 is commonly meant the concentration at which inhibition is half-maximal. Regarding `C=C1[C@@H](C)[C@H]2[C@H](Cc3ccccc3)NC(=O)[C@]23[C@H](O)/C=C/[C@@](C)(O)C(=O)[C@@H](C)C/C=C/[C@H]3[C@@H]1O` [ZYGOSPORIN D], the IC50 was 4.04 µM in experiment [1], 16.7 µM in the experiment on A549, 30.2 µM in experiment [2] and greater than 200 µM in the experiment on MRC5.

On to `CC1=C(C)[C@H]2[C@H](Cc3ccccc3)NC(=O)[C@]23[C@H](O)/C=C/[C@H](C)C(=O)[C@@H](C)C/C=C/[C@H]3C1=O`, for which the IC50 in experiment [1] is 23.7 µM; in the experiment with A549, 32.3 µM; in experiment [2], 29.8 µM; in the experiment with MRC5, greater than 200 µM.

With `CC1=C(C)[C@H]2[C@H](Cc3ccccc3)NC(=O)[C@]23[C@H](O)/C=C/[C@H](C)C(=O)[C@@H](C)C/C=C/[C@H]3[C@@H]1O`, the IC50 in experiment [1] is 26 µM; in the experiment on A549 it was 17.1 µM; in experiment [2], 35.7 µM; in the experiment with MRC5 it was greater than 200 µM.

Turning to `CC1=C[C@@H]2/C=C/C[C@H](C)C(=O)[C@](C)(O)/C=C/[C@@H](O)[C@]23C(=O)N[C@@H](Cc2ccccc2)[C@@H]3[C@H]1C`, the IC50 is 20.7 µM in experiment [1], 19.9 µM in the experiment with A549, 30.9 µM in experiment [2] and greater than 200 µM in the experiment with MRC5.

For `CC1=C(C)[C@H]2[C@H](Cc3ccccc3)NC(=O)[C@]23[C@H](O)/C=C/[C@@](C)(O)C(=O)[C@@H](C)C/C=C/[C@H]3[C@@H]1O` [DEACETYLCYTOCHALASIN C], the IC50 was 3.67 µM in experiment [1], 13.6 µM in the experiment with A549, 31.1 µM in experiment [2] and greater than 200 µM in the experiment with MRC5.
